# According to US4973578A, “Synthetic peptides derived from the alpha-subunit of human lycoprotein hormones” (Mayo Foundation for Medical Education and Research, priority 1988, dated 1990):
# Several values for one entry are separate records, joined by “and”; a condition that tells them apart may be missing. Equal entries are not always repeated. Residues, ends and D or L forms follow the SMILES beside them.
# Key:
# Type in all cases: cell-based, rat
# [1] = test system: thyroid stimulating immunoglobulin (TSI) stimulated cAMP in FRTL-5 cells; test: TSI bioassay: inhibition of thyroid stimulating immunoglobulin activity (PEG-precipitated patient immunoglobulin) in FRTL-5 cells; settings: for Percent inhibition of TSI activity, mean: mean of patient samples tested
# Source text: Ten patients (8 women and 2 men) with Graves' disease and high levels of TSI were identified after evaluation by FRTL-5 cell bioassay in the clinical chemistry laboratory. (FRTL-5 bioassay described below employing known TSH receptor recognition of various species hormones) Consecutive samples that had indices greater than 15 and sufficient serum remaining for further evaluation were chosen. Seven of the 10 had serum thyroxine values above the normal range and 9 of 10 had TSH levels below the euthyroid range by sensitive immunoradiometric assay [Boots-Celltech Sucrosep, Berkshire, UK, conducted as described in Klee and Hay, J. Clin. Endocrinol. Metab., 64:461 (1987)]. (FIG. 5). For comparison serum from 13 normal subjects was examined for TSI at the same serum dilution as the patient sera. (FIG. 5).
# FRTL-5 cells were maintained in Ham's F-12 medium supplemented with 5% calf serum and a 6-hormone preparation (6H) as described by Ambesi-Impiombato, supra. The cells were removed from flasks enzymatically, plated at 150,000 cells per well in 24 well plates, and grown in 6H medium for 4 days. The medium was then replaced with fresh medium supplemented with insulin only (1H) for 7 days prior to assay. The bioassay was a modification of that described by Kasagi et al., supra. Briefly, immunoglobulins were precipitated from 2 ml of serum with 6 ml 20% polyethylene glycol 6000 (Baker, Phillipsburg, N.J.), centrifuged at 2800×g for 20 minutes, and then reconstituted in 2.4 ml buffer (NaCl-free Hanks balanced salt solution, NaCl-free HBSS), containing 1 mM iso-butyl-methyl-xanthine (IBMX, Sigma, St. Louis) and 1.5% BSA. After washing the cells with HBSS, 150 ul of buffer was added to the wells plus varying concentrations of synthetic α-subunit peptides followed immediately by 150 ul of the crude immunoglobulin extract. The plates were incubated for 2 hours at 37° C., 5% CO2 after which 100 ul of medium was removed and diluted in 900 ul 50 mM sodium acetate buffer, pH 6.2. cAMP content was determined by radioimmunoassay using the procedures described in Wray and Glinos, supra and Steiner et al., supra. Basal cAMP levels were determined in the absence of immunoglobulin extract and synthetic peptides for each plate. Basal and maximum levels were determined in quadruplicate; peptide effects were measured in duplicate at each concentration.
# Percent increase in cAMP levels over basal was calculated as below: [formula]
# Percent inhibition of TSI activity by the synthetic α-subunit peptides was calculated as follows: [formula]
# cAMP levels in the presence of synthetic peptides were compared to maximum levels using student's T test for paired samples. Mean percent inhibition between different peptides were compared with student's T test for independent samples. Correlations were determined by Pearson's R.
# [2] = test system: TSH mediated cAMP generation in FRTL-5 cells; test: Inhibition of TSH mediated cAMP generation in FRTL-5 cells; settings: 200 mU/L bTSH, 2 hrs 37° C.
# Experimental: (§1) FRTL-5 cells were maintained in Ham's F-12 medium supplemented with 5% calf serum and a 6 hormone preparation including 10 mU/ml bTSH as described by Ambesi-Impiombato et al., Proc. Natl. Acad. Sci. U.S.A., 77:3455 (1980), the disclosure of which is incorporated herein. For all assays herein described, the cells were plated in 24 well plates and grown for 3 days at 37° C. then maintained for 5-7 days in medium supplemented with 10 ug insulin alone prior to assay.
# The bioassay was a modification of those previously described by Bidey et al, J. Endocrinol., 101:269 (1984); and Kasagi et al., ACTA Endocrinol., 115:30 (1987). To duplicate culture wells were added varying concentrations of test materials (see below) in a final volume of 300 ul of NaCl free HBSS with 0.5 mM iso-butyl-methyl-xanthine (IBMX, Sigma, St. Louis). In stimulation assays, only synthetic α-subunit peptides were added to the incubation medium. For inhibition assays, the noted concentrations of synthetic α-subunit peptides were added immediately prior to the addition of 200 mU/L bTSH. The plates were incubated at 37° C. in 5% CO2 for 2 hrs then 100 ul of incubation medium was removed and diluted in 900 ul of 0.05M sodium acetate pH 6.2 and assayed for cAMP content by RIA in accordance with procedures described by Wray and Glinos, Am. J. Physiol., 234 (Cell Phisol. 3):C131(1978)); and Steiner et al., J. Biol. Chem., 247:1106 (1972). […] Basal cAMP levels were determined in the presence of HBSS and IBMX alone. In inhibition assays percent inhibition was calculated as follows: [formula]
# FIG. 4 reports data obtained for TSH deprived FRTL-5 cells incubated with a fixed amount of bTSH (200 mU/l) by itself or with various concentrations of synthetic peptides. cAMP content of medium was measured after 2 hrs. incubation at 37° C. Percent inhibition of cAMP generation was calculated as noted above.
# [3] = test system: cAMP production (adenylate cyclase activity) in FRTL-5 cells; test: TSH bioassay, cAMP stimulation in FRTL-5 cells; settings: at least 2 separate assays
# Experimental: as §1
# The bioassay was a modification of those previously described by Bidey et al, J. Endocrinol., 101:269 (1984); and Kasagi et al., ACTA Endocrinol., 115:30 (1987). To duplicate culture wells were added varying concentrations of test materials (see below) in a final volume of 300 ul of NaCl free HBSS with 0.5 mM iso-butyl-methyl-xanthine (IBMX, Sigma, St. Louis). In stimulation assays, only synthetic α-subunit peptides were added to the incubation medium. […] Basal cAMP levels were determined in the presence of HBSS and IBMX alone. In inhibition assays percent inhibition was calculated as follows: [formula]
# The standard curve for TSH is shown in FIG. 3 and reports TSH deprived FRTL-5 cells incubated for 2 hrs. in buffer (NaCl-free HBSS, 200 mM sucrose, 0.5% BSA, 0.5 mM IBMX) with increasing concentrations of bTSH. cAMP released into the incubation media was measured by RIA. […]
compound,measurement,setting,value
"CSCC[C@H](NC(=O)[C@H](CS)NC(=O)[C@H](CCC(N)=O)NC(=O)[C@@H](N)CC(C)C)C(=O)NCC(=O)N[C@@H](CS)C(=O)N[C@@H](CS)C(=O)N[C@@H](Cc1ccccc1)C(=O)N[C@@H](CO)C(=O)N[C@@H](CCCNC(=N)N)C(=O)N[C@@H](C)C(=O)N[C@@H](Cc1ccc(O)cc1)C(=O)N1CCC[C@H]1C(=O)N[C@H](C(=O)N1CCC[C@H]1C(=O)N[C@@H](CC(C)C)C(=O)N[C@@H](CCCNC(=N)N)C(=O)N[C@@H](CO)C(=O)N[C@@H](CCCCN)C(=O)N[C@@H](CCCCN)C(=O)N[C@H](C(N)=O)[C@@H](C)O)[C@@H](C)O [α26-46, Leu--Gln--Cys--Met--Gly--Cys--Cys--Phe--Ser--Arg--Ala--Tyr--Pro--Thr--Pro--Leu--Arg--Ser--Lys--Lys--Thr--(NH2)] (H-LQCMGCCFSRAYPTPLRSKKT-NH2)",patient samples in which peptide showed an inhibitory effect / lowered cAMP levels,[1]; Graves' disease patient samples,10 of 10
same,Percent inhibition of TSI activity,"[1]; Pt. sample A, peptide 66.7 ug/ml",62.1%
same,Percent inhibition of TSI activity,"[1]; Pt. sample A, peptide 133 ug/ml",125.3±3% and 125.3%
same,Percent inhibition of TSI activity,"[1]; Pt. sample B, peptide 66.7 ug/ml",14.3%
same,Percent inhibition of TSI activity,"[1]; Pt. sample B, peptide 133 ug/ml",125.0%
same,Percent inhibition of TSI activity,"[1]; Pt. sample C, peptide 66.7 ug/ml",29.1%
same,Percent inhibition of TSI activity,"[1]; Pt. sample C, peptide 133 ug/ml",86.4%
same,Percent inhibition of TSI activity,"[1]; Pt. sample D, peptide 66.7 ug/ml",9.1%
same,Percent inhibition of TSI activity,"[1]; Pt. sample D, peptide 133 ug/ml",85.7%
same,Percent inhibition of TSI activity,"[1]; Pt. sample E, peptide 66.7 ug/ml",42.0%
same,Percent inhibition of TSI activity,"[1]; Pt. sample E, peptide 133 ug/ml",85.9%
same,Percent inhibition of TSI activity,"[1]; Pt. sample F, peptide 66.7 ug/ml",19.8%
same,Percent inhibition of TSI activity,"[1]; Pt. sample F, peptide 133 ug/ml",57.8%
same,Percent inhibition of TSI activity,"[1]; Pt. sample G, peptide 66.7 ug/ml",43.1%
same,Percent inhibition of TSI activity,"[1]; Pt. sample G, peptide 133 ug/ml",77.2%
same,Percent inhibition of TSI activity,"[1]; Pt. sample H, peptide 66.7 ug/ml",14.7%
same,Percent inhibition of TSI activity,"[1]; Pt. sample H, peptide 133 ug/ml",52.5%
same,Percent inhibition of TSI activity,"[1]; Pt. sample I, peptide 66.7 ug/ml",4.2%
same,Percent inhibition of TSI activity,"[1]; Pt. sample I, peptide 133 ug/ml",38±9.7% and 38.0%
same,Percent inhibition of TSI activity,"[1]; Pt. sample J, peptide 66.7 ug/ml",36.0%
same,Percent inhibition of TSI activity,"[1]; Pt. sample J, peptide 133 ug/ml",57.7%
same,"Percent inhibition of TSI activity, mean",[1]; peptide 66.7 ug/ml,27.5%
same,"Percent inhibition of TSI activity, mean",[1]; peptide 133 ug/ml,79.1±8.8% and 79.1%
same,patient Ig samples with statistically significant inhibition of cAMP,[1]; peptide 133 ug/ml,10
same,percent inhibition of TSH mediated cAMP generation,[2]; peptide 33.3 ug/ml,65.0±2.6% and 64.97%
same,percent inhibition of TSH mediated cAMP generation,[2]; peptide 66.7 ug/ml,95.6±3.1% and 95.62%
same,percent inhibition of TSH mediated cAMP generation,[2]; peptide 133.3 ug/ml,106±0.8% and 106.70%
same,"stimulation of cAMP levels over basal by peptide alone, in words",[3],no ability to stimulate cAMP production
